In patent US10543132B2, “Absorbent article with blood modifying agent” (UNICHARM CORPORATION, priority 2011, dated 2020):

How the values were obtained:
[1] = at 20° C.; cited from earlier work
[2] = Description: As used herein, the term “solubility” in regard to water solubility includes cases where the sample completely dissolves in deionized water to form a homogeneous mixture, and cases where the sample is completely emulsified. As used herein, “completely” means that no mass of the sample remains in the deionized water.
[3] = Surface tension of blood containing blood modifying agent, pendant drop method (Example 6); settings: sheep defibrinated blood; amount 0.10 mass %; 35 ° C.; without agent 62.1
Experimental: The surface tension of blood containing a blood modifying agent was measured by the pendant drop method, using a Drop Master500 contact angle meter by Kyowa Interface Science Co., Ltd. The surface tension was measured after adding a prescribed amount of blood modifying agent to sheep defibrinated blood, and thoroughly shaking. The measurement was accomplished automatically with a device, and the […] γ was determined by the following formula (see FIG. 4). γ=g×ρ×(de)^2×1/H The density ρ was measured at the temperatures listed in Table 5, according to JIS K 2249-1995, “Density test methods and density/mass/volume conversion tables”, “5. Vibrating density test method”. The measurement was accomplished using a DA-505 by Kyoto Electronics Co., Ltd.

| SMILES | Water solubility [2] [g] | further results |
| --- | --- | --- |
| CCCCC(=O)CCCC [5-nonanone] | – | vapor pressure [1]: about 230 Pa |
| CC(C)CCCCCCCCCCCCCCCOC(=O)CC(O)C(=O)OCCCCCCCCCCCCCCCC(C)C (stereo not shown) [Diisostearyl malate, Diisostearyl Malate] | – | Water solubility (g) [2]: 20< g |
| CCCCCCCCCCCCOC(=O)CCCCCCCCCCC [ELECTOL WE20, Ester of dodecanoic acid (C12) and dodecyl alcohol (C12)] | – | Surface tension (mN/m) [3]: 58.8 mN/m |
| CCCCC(CC)C(=O)OCC(C)(C)COC(=O)C(CC)CCCC (stereo not shown) [H-208BRS, Neopentylglycol di-2-ethylhexanoate] | <0.05 | – |
| CCCCC(CC)C(=O)OCC(COC(=O)C(CC)CCCC)OC(=O)C(CC)CCCC (stereo not shown) [PANACET 800B] | <0.05 | – |
| CCCCCCCC(=O)OCC(COC(=O)CCCCCCC)OC(=O)CCCCCCC [PANACET 800] | <0.05 | – |
| CCCCOC(=O)CC(CC(=O)OCCCC)(OC(C)=O)C(=O)OCCCC [Tributyl O-acetylcitrate, Tributyl O-Acetylcitrate] | <0.05 | – |
